# Measurements reported in patent US20120070401A1, “Composition and Method for Promoting Wound Healing” (priority 2010, published 2012).
# Tested on: corneal reepithelialization
# Assay: rabbit corneal wound healing model (corneal reepithelialization after 9.5-mm epithelial wound, fluorescein-stained wound area)
# Assay type: in vivo, New Zealand White rabbits
# Details: n=10 per group
# Excerpt: Animals. One hundred and ten pathogen-free New Zealand White rabbits were obtained from a commercial laboratory. Animals were at least 18 weeks old and 2-3 kg body weight at the time of treatment.
# Pre-Treatment Examinations. Prior to placement on study, each animal underwent a pre-treatment ophthalmic examination (slit lamp with fluorescein staining). […] Animals were then randomly assigned to eleven treatment groups (10 animals per group) according to a modified Latin square design. Animals were fasted at least 12 hours prior to corneal wound surgery.
# Wounding Procedure. […]
# Corneal Wound Evaluation. The corneal wound condition was evaluated immediately post wounding and at 12, 24, 36, 48, 60, and 72 hours. […] From the photographs, the perimeter of the wounds was determined using a Mechanical Polar Planimeter (LASISCO; Los Angeles, Calif.).
# Numerical results were expressed as mean±SEM, n=10, unless indicated otherwise. Data were analyzed by a two-way ANOVA with repeated measures followed by the Tukey-Kramer test. In addition, overall effects were evaluated by analyzing integrated responses calculated as the areas under the curve (AUC) for each treatment over the time course. […] Integrated responses were analyzed by a one-way ANOVA followed by the Tukey-Kramer test. […]
substance,measurement,setting,value
benzalkonium chloride [BAK],integrated wound area (AUC over the time course) compared to the saline control,"0 to 72 hours, trapezoidal rule",no significant effects
same,effect on corneal reepithelialization time-course (wound area) compared to the saline control,"topical, 14 instillations over 72 hours, time points 12-72 hours",No significant effects
